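Exposure lasted 48 hours, with cells grown in 96-well plates and compounds tested at five concentrations. At the GI50, growth is halved.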 Active and inactive are the calls of the source. No stated cut-off is given here; in the data, active = GI50 up to about 1.1 µM and inactive = higher.
How the values were obtained:
Experiment in all cases: NCI tumour cell line growth inhibition, 48 h
[1] = tested on: DLD-1
[2] = tested on: DMS-273
[3] = tested on: HOP-18
[4] = tested on: HOP-62
[5] = tested on: M19-MEL
[6] = tested on: RXF 631
[7] = tested on: SK-OV-3
[8] = tested on: SNB-78
[9] = tested on: XF498
[10] = tested on: BT-549
[11] = tested on: CCRF-CEM
[12] = tested on: DU-145
[13] = tested on: HCC 2998
[14] = tested on: KM12
[15] = tested on: MDA-MB-231
[16] = tested on: MDA-N
[17] = tested on: OVCAR-5
[18] = tested on: SR
[19] = tested on: NCI-H522
[20] = tested on: T47D

Measured: GI50

COc1ccc(C2C(C(=O)O)=C(CO)Oc3cc4c(cc32)OCO4)cc1 (stereo unspecified)
inactive: [1] > 100 µM | [2] > 100 µM | [3] > 100 µM | [4] 32.5 µM | [5] > 100 µM | [6] > 100 µM | [7] > 100 µM | [8] > 100 µM | [9] > 100 µM

O=c1[nH]nc(NCc2ccccc2)c2nnn(Cc3ccccc3)c12
inactive: [10] > 100 µM | [11] > 100 µM | [12] > 100 µM | [13] > 100 µM | [4] > 100 µM | [14] > 100 µM | [15] > 100 µM | [16] > 100 µM | [17] > 100 µM | [18] > 100 µM

NC(CCOCCP(=O)(O)O)C(=O)O (stereo unspecified)
inactive: [10] > 100 µM | [11] > 100 µM | [12] > 100 µM | [13] > 100 µM | [14] > 100 µM | [15] > 100 µM | [16] > 100 µM | [19] > 100 µM | [17] > 100 µM | [7] > 100 µM | [18] > 100 µM | [20] 57.7 µM
